Results taken from US20080113347A1, “Method for the in Vitro Diagnosis and Prognosis of Demyelinating Diseases, and for the Development of Drugs Against Demyelinating Diseases” (priority 2003, published 2008).
Values joined by “and” are separate entries in the source; they are usually repeats but may differ in a detail not shown here. Equal entries are not always repeated.

System: dusp6 gene expression
Experiment: Real time quantitative RT-PCR of dusp6 expression in primary oligodendrocyte cultures
Format: cell-based, rat
Conditions: for Experimental dusp6 crossing points (Cp), single replicas: replicas 1 and 2; for Dusp6 overexpression values (Fold Change) with regard to the untreated control, Ratio: standardized to GAPDH
Method: The method used consists of reverse transcription of mRNA to cDNA and its subsequent amplification into a LightCycler equipment (Roche), using SYBR Green for the detection of the amplified product. Real time quantification is carried out, and it allows calculating the relative expression of the sequence in different samples in the linear amplification phase of the reaction.
Samples: Primary oligodendrocyte culture samples treated with AMPA were analyzed. The samples came from cultures different from those analyzed with DNA microarrays. 4 cultures were carried out:
control: untreated cultured oligodendrocytes
ampa 2: oligodendrocytes treated for 2 minutes with 10 μM AMPA and collected after treatment
ampa 10: oligodendrocytes treated for 10 minutes with 10 μM AMPA collected after treatment
ampa 15: oligodendrocytes treated for 15 minutes with 10 μM AMPA and collected 60 minutes later.
Real time quantitative RT-PCR. The total RNA of each one of the cultures was obtained by homogenizing the cells in TRIzol® Reagent (Life Technologies) following the supplier's recommendations. The resulting total RNA was cleaned with the RNeasy kit (QIAGEN) (Chomczynski P. et al., Anal. Biochem., 1987, 162: 156; Chomczynski P., Biotechniques, 1993, 15: 532). The total RNA samples were conserved at −80° C. from the moment they were obtained until they were used. The RNA was spectrophotometrically quantified and 5 μg of total RNA were digested with DNase (2 U/μl) of Ambion at a concentration of 2 U per μg of RNA, for 30 minutes at 37° C.
1 μg of RNA treated with DNAse as a starting material was used for the synthesis of the first cDNA strand with the reverse transcriptase enzyme SuperScript™ II RNase (Life Technologies), using an oligo-dT oligonucleotide as a primer which contained the sequence of the promoter of the phage T7 RNA polymerase. Aliquots of cDNA diluted to the working concentration were used.
Synthesized cDNA was amplified using specific primers of the rat dusp6 gene (SEQ ID NO: 1 and SEQ ID NO: 2), and of the gene encoding the rat protein glyceraldehyde 3-phosphate dehydrogenase, Genebank accession number NM_017008 (SEQ ID NO:21 and SEQ ID NO:22). Real time PCR reactions were prepared using the LightCycler-FastStart DNA master SYBR Green I kit (Roche) following the manufacturer's instructions. The amplification program consisted of […] for 10 min (“hot start”) followed by 45 95° C. cycles (denaturation) for 10 seconds, 60° C. (annealing) for 5 seconds, 72° C. (amplification and fluorescence acquisition) for 10 seconds. The melting curve analysis program consisted of a one-pulse cycle of 95° C., 65° C. for 15 seconds, and a 95° C. pulse during the amplification and acquisition step.
First, specificity of the PCR products was determined by analyzing the melting curves. Subsequently, as a relative measurement of gene expression, the ratio between the abundance of dusp6 transcribed mRNAs and the abundance of GAPDH transcribed mRNAS was calculated, and the data of the ratio was standardized in each one of the treated samples on the basis of control sample values. To calculate efficiency of the PCR reactions (dusp6 and GAPDH), a standard curve was constructed for each gene sequence carried out with cDNA serial dilutions. The template cDNA concentrations for the reactions on the standard curve were arbitrarily given the values 2×, 0.5×, 0.2× and 0.02×. The crossing point values for each one of the reactions were used to construct the standard curve: y=m×+b, where m is the slope and b is the intersection point of the line on the axis of ordinates. Starting RNA concentration values in each sample were obtained from the data of the line using the following formula: […]
The change rate at each point was obtained by dividing the concentration values standardized in comparison to the concentration values in the control.

[1] = 10 μM AMPA 2 minutes, collected after treatment
[2] = 10 μM AMPA 10 minutes, collected after treatment
[3] = 10 μM AMPA 15 minutes, collected 60 minutes later

SMILES: Cc1onc(O)c1CC(N)C(=O)O (stereo not drawn) [AMPA, α-amino-3-hydroxy-5-methyl-4-isoxazolepropionic acid]
- Experimental dusp6 crossing points (Cp), Mean [1]: 30.5
- Experimental dusp6 crossing points (Cp), single replicas [1]: 30.46 and 30.54
- Dusp6 overexpression values (Fold Change) with regard to the untreated control, Ratio [1]: 1.7 fold
- Experimental dusp6 crossing points (Cp), Mean [2]: 32.23
- Experimental dusp6 crossing points (Cp), single replicas [2]: 32.15 and 32.31
- Dusp6 overexpression values (Fold Change) with regard to the untreated control, Ratio [2]: 0.9 fold
- Experimental dusp6 crossing points (Cp), Mean [3]: 29.67
- Experimental dusp6 crossing points (Cp), single replicas [3]: 29.73 and 29.61
- Dusp6 overexpression values (Fold Change) with regard to the untreated control, Ratio [3]: 2.7 fold
